According to US11858905B1, “Cathepsin L inhibitors” (priority 2023, dated 2024):
Where two headings read alike, the source gives them in different places.

Columns and labels:
[1] = target: human CatL (Homo sapiens (Human), UniProt P07711); experiment: Human Cathepsin L (CatL) enzymatic assay; assay type: biochemical
Experimental: Human Cathepsin L (CatL) Enzymatic Assay
60 μL of the compounds were added to 384-well dilution plate. The compound solution was diluted for 1:3 in succession in DMSO for each column for 10 pts. 0.05 μL diluted compound solution was added in each row to 384 assay plates (Corning 4514) using Echo (LABCYTE 655), each column containing 2 replicates. 5 μL working solution of human CatL enzyme (Abcam #ab81780) was added to 384-well assay plate, centrifuge 1000 rpm for 1 min. The mixture was incubated at […] for 15 min, then add 5 μL working solution of CatL substrate (Genscript #C7360HB140_5) to initiate the reaction (CatL: 0.05 nM, Substrate: 500 nM). Incubate at […] for 30 min. Reading Ex370 nm and Em460 nm fluorescence signals with BMG CLARIO Star Plusaucu. Percent inhibition for each compound was calculated and IC50 (half maximal inhibitory concentration) was fitted from non-linear regression by XLfit 5.5.0.

[2] = test system: SARS-CoV-2 PsVs; experiment: microbe, parasite or virus in culture; assay type: cell-based; conditions: Severe acute respiratory syndrome coronavirus 2, Vero C1008, 24 h; for activity at 0.5 µM: read-out: % Infection rate at 500 nM; for activity at 5 µM: read-out: % Infection rate at 5 uM
[3] = CatL 0.05 nM, substrate 500 nM, pH 5.5, read-out: Enzymatic inhibition IC50
[4] = summary of Table 2, read-out: IC50 for inhibiting CatL

human CatL, sequence (P07711 whole entry, looked up): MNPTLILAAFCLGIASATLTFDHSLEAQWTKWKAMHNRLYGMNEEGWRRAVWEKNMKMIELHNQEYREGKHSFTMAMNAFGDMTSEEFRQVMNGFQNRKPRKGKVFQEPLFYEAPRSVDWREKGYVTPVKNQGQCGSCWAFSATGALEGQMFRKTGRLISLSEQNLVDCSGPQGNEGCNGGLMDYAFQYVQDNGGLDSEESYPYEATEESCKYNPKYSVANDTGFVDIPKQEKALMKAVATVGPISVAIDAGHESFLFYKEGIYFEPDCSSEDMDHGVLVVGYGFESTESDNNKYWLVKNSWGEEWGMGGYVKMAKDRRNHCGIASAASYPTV

Row | Compound | IC50 [1, 3] [nM] | activity at 0.5 µM [2] [%] | activity at 5 µM [2] [%] | IC50 [1, 4] [nM]
1 | N#CC1(NC(=O)[C@H](Cc2nc3ccccc3o2)NC(=O)c2cccc(Cl)c2)CC1 [Compound 1, (S)—N-(3-(benzo[d]oxazol-2-yl)-1-((1-cyanocyclopropyl)amino)-1-oxopropan-2-yl)-3-chlorobenzamide] | 14.1 | 69 | 39 | 
2 | N#CC1(NC(=O)[C@H](Cc2nc3c(Br)cccc3o2)NC(=O)c2cccc(Cl)c2)CC1 [Compound 2, (S)—N-(3-(4-bromobenzo[d]oxazol-2-yl)-1-((1-cyanocyclopropyl)amino)-1-oxopropan-2-yl)-3-chlorobenzamide] | 7.5 | 55 | 12 | < 10
3 | N#CC1(NC(=O)[C@H](Cc2nc3cccc(Br)c3o2)NC(=O)c2cccc(Cl)c2)CC1 [Compound 3, (S)—N-(3-(7-bromobenzo[d]oxazol-2-yl)-1-((1-cyanocyclopropyl)amino)-1-oxopropan-2-yl)-3-chlorobenzamide] | 5.9 | 65 | 10 | < 10
4 | N#CC1(NC(=O)[C@H](Cc2nc3ccc(F)cc3o2)NC(=O)c2cccc(Cl)c2)CC1 [Compound 4, (S)-3-chloro-N-(1-((1-cyanocyclopropyl)amino)-3-(6-fluorobenzo[d]oxazol-2-yl)-1-oxopropan-2-yl)benzamide] | 34.9 | 81 | 51 | 
5 | N#Cc1cccc2nc(C[C@H](NC(=O)c3cccc(Cl)c3)C(=O)NC3(C#N)CC3)oc12 [Compound 5, (S)-3-chloro-N-(3-(7-cyanobenzo[d]oxazol-2-yl)-1-((1-cyanocyclopropyl)amino)-1-oxopropan-2-yl)benzamide] | 122 | 91 | 81 | 
6 | N#CC1(NC(=O)[C@H](Cc2nc3cccc(Cl)c3o2)NC(=O)c2cccc(Cl)c2)CC1 [Compound 6, (S)-3-chloro-N-(3-(7-chlorobenzo[d]oxazol-2-yl)-1-((1-cyanocyclopropyl)amino)-1-oxopropan-2-yl)benzamide] | 7 | 75 | 20 | < 10
7 | N#CC1(NC(=O)[C@H](Cc2nc3c(Cl)cccc3o2)NC(=O)c2cccc(Cl)c2)CC1 [Compound 7, (S)-3-chloro-N-(3-(4-chlorobenzo[d]oxazol-2-yl)-1-((1-cyanocyclopropyl)amino)-1-oxopropan-2-yl)benzamide] | 21.1 | 96 | 48 | 
8 | N#CC1(NC(=O)[C@H](Cc2nc3cc(Cl)ccc3o2)NC(=O)c2cccc(Cl)c2)CC1 [Compound 8, (S)-3-chloro-N-(3-(5-chlorobenzo[d]oxazol-2-yl)-1-((1-cyanocyclopropyl)amino)-1-oxopropan-2-yl)benzamide] | 17.4 | 92 | 69 | 
9 | N#CC1(NC(=O)[C@H](Cc2nc3ccc(Cl)cc3o2)NC(=O)c2cccc(Cl)c2)CC1 [Compound 9, (S)-3-chloro-N-(3-(6-chlorobenzo[d]oxazol-2-yl)-1-((1-cyanocyclopropyl)amino)-1-oxopropan-2-yl)benzamide] | 30.5 | 97 | 73 | 
10 | N#CC1(NC(=O)[C@H](Cc2nc3cc(C(F)(F)F)ccc3o2)NC(=O)c2cccc(Cl)c2)CC1 [Compound 10, (S)-3-chloro-N-(1-((1-cyanocyclopropyl)amino)-1-oxo-3-(5-(trifluoromethyl)benzo[d]oxazol-2-yl)propan-2-yl)benzamide] | 51.5 | 97 | 96 | 
11 | N#CC1(NC(=O)[C@H](Cc2nc3ccc(C(F)(F)F)cc3o2)NC(=O)c2cccc(Cl)c2)CC1 [Compound 11, (S)-3-chloro-N-(1-((1-cyanocyclopropyl)amino)-1-oxo-3-(6-(trifluoromethyl)benzo[d]oxazol-2-yl)propan-2-yl)benzamide] | 94.6 | 86 | 81 | 
12 | N#CC1(NC(=O)[C@H](Cc2nc3cccc(C(F)(F)F)c3o2)NC(=O)c2cccc(Cl)c2)CC1 [Compound 12, (S)-3-chloro-N-(1-((1-cyanocyclopropyl)amino)-1-oxo-3-(7-(trifluoromethyl)benzo[d]oxazol-2-yl)propan-2-yl)benzamide] | 235 |  |  | 
13 | Cn1nc(C(C)(C)C)cc1C(=O)N[C@@H](Cc1nc2ccccc2o1)C(=O)NC1(C#N)CC1 [Compound 13, (S)—N-(3-(benzo[d]oxazol-2-yl)-1-((1-cyanocyclopropyl)amino)-1-oxopropan-2-yl)-3-(tert-butyl)-1-methyl-1H-pyrazole-5-carboxamide] | 3.9 | 55 | 10 | < 10
14 | Cc1cccc(C(=O)N[C@@H](Cc2nc3ccccc3o2)C(=O)NC2(C#N)CC2)n1 [Compound 14, (S)—N-(3-(benzo[d]oxazol-2-yl)-1-((1-cyanocyclopropyl)amino)-1-oxopropan-2-yl)-6-methylpicolinamide] | 534 | 103 | 97 | 
15 | N#CCNC(=O)[C@H](Cc1nc2ccccc2o1)NC(=O)c1cc(C2CC2)nn1C1CC1 [Compound 15, (S)—N-(3-(benzo[d]oxazol-2-yl)-1-((cyanomethyl)amino)-1-oxopropan-2-yl)-1,3-dicyclopropyl-1H-pyrazole-5-carboxamide] | 19.4 | 79 | 20 | < 50
16 | Cc1nn(C2CC2)cc1C(=O)N[C@@H](Cc1nc2ccccc2o1)C(=O)NC1(C#N)CC1 [Compound 16, (S)—N-(3-(benzo[d]oxazol-2-yl)-1-((1-cyanocyclopropyl)amino)-1-oxopropan-2-yl)-1-cyclopropyl-3-methyl-1H-pyrazole-4-carboxamide] | 139 |  |  | 
17 | Cc1nn(C2CC2)cc1C(=O)N[C@@H](Cc1nc2cc(F)c(F)cc2o1)C(=O)NC1(C#N)CC1 [Compound 17, (S)—N-(1-((1-cyanocyclopropyl)amino)-3-(5,6-difluorobenzo[d]oxazol-2-yl)-1-oxopropan-2-yl)-1-cyclopropyl-3-methyl-1H-pyrazole-4-carboxamide] | 201 |  |  | 
18 | N#CC1(NC(=O)[C@H](Cc2nc3ccccc3o2)NC(=O)c2cn(C3CC3)nc2C(F)(F)F)CC1 [Compound 18, (S)—N-(3-(benzo[d]oxazol-2-yl)-1-((1-cyanocyclopropyl)amino)-1-oxopropan-2-yl)-1-cyclopropyl-3-(trifluoromethyl)-1H-pyrazole-4-carboxamide] | 50.7 | 92 | 72.6 | 
19 | N#CC1(NC(=O)[C@H](Cc2nc3ccccc3o2)NC(=O)c2cn(C3CC3)nc2C(F)F)CC1 [Compound 19, (S)—N-(3-(benzo[d]oxazol-2-yl)-1-((1-cyanocyclopropyl)amino)-1-oxopropan-2-yl)-1-cyclopropyl-3-(difluoromethyl)-1 H-pyrazole-4-carboxamide] | 44.6 | 101 | 77.3 | 
20 | CC(C)(C)c1cc(C(=O)N[C@@H](Cc2nc3cccc(Cl)c3o2)C(=O)NC2(C#N)CC2)n(C2CC2)n1 [Compound 20, (S)-3-(tert-butyl)-N-(3-(7-chlorobenzo[d]oxazol-2-yl)-1-((1-cyanocyclopropyl)amino)-1-oxopropan-2-yl)-1-cyclopropyl-1H-pyrazole-5-carboxamide] | 4.2 | 40 | 6.3 | 
21 | CC(C)(C)c1cc(C(=O)N[C@@H](Cc2nc3cc(F)cc(Cl)c3o2)C(=O)NC2(C#N)CC2)n(C2CC2)n1 [Compound 21, (S)-3-(tert-butyl)-N-(3-(7-chloro-5-fluorobenzo[d]oxazol-2-yl)-1-((1-cyanocyclopropyl)amino)-1-oxopropan-2-yl)-1-cyclopropyl-1 H-pyrazole-5-carboxamide] | 8.2 | 60 | 12 | 
22 | CC(C)(C)c1cc(C(=O)N[C@@H](Cc2nc3cc(F)cc(Cl)c3o2)C(=O)NC2(C#N)CC2)n(C2COC2)n1 [Compound 22, (S)-3-(tert-butyl)-N-(3-(7-chloro-5-fluorobenzo[d]oxazol-2-yl)-1-((1-cyanocyclopropyl)amino)-1-oxopropan-2-yl)-1-(oxetan-3-yl)-1H-pyrazole-5-carboxamide] | 5.3 | 33 | 13 | 
23 | N#CC1(NC(=O)[C@H](Cc2nc3c(-c4cn[nH]c4)cccc3o2)NC(=O)c2cccc(Cl)c2)CC1 [Compound 23, (S)—N-(3-(4-(1H-pyrazol-4-yl)benzo[d]oxazol-2-yl)-1-((1-cyanocyclopropyl)amino)-1-oxopropan-2-yl)-3-chlorobenzamide] | 361 | 93 | 98 | 
24 | CN1CCN(c2ccc3nc(C[C@H](NC(=O)c4cccc(Cl)c4)C(=O)NC4(C#N)CC4)oc3c2)CC1 [Compound 24, (S)-3-chloro-N-(1-((1-cyanocyclopropyl)amino)-3-(6-(4-methylpiperazin-1-yl)benzo[d]oxazol-2-yl)-1-oxopropan-2-yl)benzamide] | 9.7 | 34 | 2 | < 10
